Results taken from patent publication US20180339024A1, “PEPTIDES WITH ANTI-ANGIOGENIC, ANTI-LYMPHANGIOGENIC, AND ANTI-EDEMIC PROPERTIES AND NANOPARTICLE FORMULATIONS” (Asclepix Therapeutics, LLC, priority 2015, published 2018).
Entries after “also recorded” stand apart in the source; their conditions may differ.

Assays:
α5β1 integrin = α5β1 integrin (Homo sapiens, UniProt P05556+P08648); assay: Target identification of P07 (α5β1); type: binding
αVβ3 integrin = αVβ3 integrin (Homo sapiens, UniProt P05106+P06756); assay: Target identification of P07 (αVβ3); type: binding
[1] = tested on: small cell lung cancer (SCLC) xenografts; assay: Small cell lung cancer xenografts; type: in vivo; details: not shown
[2] = tested on: rabbit eye, human VEGF induced leakage; assay: VEGF induced vascular leakage (edema) model in the rabbit eye; type: in vivo; details: about 50 μg P07 in the eye prior to VEGF injection, fluorescein i.v. 3 days after VEGF, FIG. 3
Procedure: P07 was also tested in a model of edema in the rabbit eye. In this model human VEGF was injected directly into the eye causing the local vasculature to be leaky. The extent of this leak was assessed by measuring the amount of fluorescence in the eye resulting from the leakage of sodium fluorescein administered intravenously 3 days after VEGF injection.

[3] = tested on: transgenic mouse over-expressing the human form of vascular endothelial growth factor (VEGF) in the retina; assay: Vascular leakage and retinal detachment in transgenic mouse over-expressing human VEGF in the retina; type: in vivo
Description: The vascular leakage in this model is so severe that the blood that pools behind the retina causes retinal detachment.

[4] = tested on: hepatocyte growth factor receptor (HGFR or c-met); assay: P07 inhibition of HGF receptor signaling in microvascular endothelial cells; type: cell-based; details: FIG. 1
Description: (§1) Integrins function as co-receptors for many growth factor receptors such as VEGFR, hepatocyte growth factor receptor (HGFR or c-met), insulin-like growth factor receptor (IGFR), and platelet derived growth factor receptor (PDGFR).

[5] = tested on: insulin-like growth factor receptor (IGFR); assay: P07 inhibition of IGF receptor signaling in microvascular endothelial cells; type: cell-based; details: FIG. 1
Description: as §1

[6] = tested on: VEGF induced neovascularization and leakage; assay: Mouse models of retinal and choroidal neovascularization and vascular leakage; type: in vivo
[7] = tested on: vascular endothelial growth factor receptor (VEGFR); assay: P07 inhibition of VEGF receptor signaling in microvascular endothelial cells; type: cell-based; details: FIG. 1
Description: as §1

[8] = tested on: platelet derived growth factor receptor (PDGFR); assay: P07 inhibition of PDGF receptor signaling; type: cell-based
Description: as §1

glioblastoma xenografts = assay: Glioblastoma xenografts; type: in vivo; details: not shown
[9] = tested on: orthotopic triple-negative breast cancer (TNBC) xenografts; assay: Orthotopic triple-negative breast cancer xenografts; type: in vivo
[10] = Size characterization, Malvern Zetasizer Nano ZS90; type: physicochemical; details: 1 mg/ml in water
Procedure: N07 was suspended in water at 1 mg/ml and analyzed using a Malvern Zetasizer Nano ZS90. Z-average diameter and intensity-based size distribution were measured and recorded.

Chain of α5β1 integrin (P08648 42-894 limits assumed): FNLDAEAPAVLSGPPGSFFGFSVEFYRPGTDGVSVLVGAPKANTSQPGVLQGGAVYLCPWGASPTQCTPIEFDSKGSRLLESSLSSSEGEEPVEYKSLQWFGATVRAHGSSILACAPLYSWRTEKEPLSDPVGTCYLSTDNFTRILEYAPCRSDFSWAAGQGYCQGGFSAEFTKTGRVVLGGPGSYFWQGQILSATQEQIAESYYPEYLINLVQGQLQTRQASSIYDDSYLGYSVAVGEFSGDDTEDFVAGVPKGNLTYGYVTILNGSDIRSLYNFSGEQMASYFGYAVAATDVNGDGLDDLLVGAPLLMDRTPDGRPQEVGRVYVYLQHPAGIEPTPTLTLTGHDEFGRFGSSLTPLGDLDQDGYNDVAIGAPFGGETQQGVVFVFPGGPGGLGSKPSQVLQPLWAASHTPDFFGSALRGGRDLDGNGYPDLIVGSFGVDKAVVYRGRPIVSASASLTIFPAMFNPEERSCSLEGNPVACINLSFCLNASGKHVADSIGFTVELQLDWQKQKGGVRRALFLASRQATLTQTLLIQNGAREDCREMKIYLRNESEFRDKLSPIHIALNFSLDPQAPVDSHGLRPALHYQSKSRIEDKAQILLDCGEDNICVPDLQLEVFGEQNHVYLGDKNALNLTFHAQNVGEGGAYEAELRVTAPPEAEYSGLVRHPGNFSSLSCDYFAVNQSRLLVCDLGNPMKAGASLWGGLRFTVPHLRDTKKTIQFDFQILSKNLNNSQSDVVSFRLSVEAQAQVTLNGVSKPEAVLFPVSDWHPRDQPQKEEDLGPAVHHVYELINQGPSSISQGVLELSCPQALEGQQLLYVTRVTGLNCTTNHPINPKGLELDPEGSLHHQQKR
Chain of α5β1 integrin (P08648 895-1049 partner limits assumed): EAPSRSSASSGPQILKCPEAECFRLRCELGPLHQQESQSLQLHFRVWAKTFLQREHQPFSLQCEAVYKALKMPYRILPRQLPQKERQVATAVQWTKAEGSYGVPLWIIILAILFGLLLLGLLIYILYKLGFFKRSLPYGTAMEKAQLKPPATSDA
Chain of α5β1 integrin (P05556 21-798): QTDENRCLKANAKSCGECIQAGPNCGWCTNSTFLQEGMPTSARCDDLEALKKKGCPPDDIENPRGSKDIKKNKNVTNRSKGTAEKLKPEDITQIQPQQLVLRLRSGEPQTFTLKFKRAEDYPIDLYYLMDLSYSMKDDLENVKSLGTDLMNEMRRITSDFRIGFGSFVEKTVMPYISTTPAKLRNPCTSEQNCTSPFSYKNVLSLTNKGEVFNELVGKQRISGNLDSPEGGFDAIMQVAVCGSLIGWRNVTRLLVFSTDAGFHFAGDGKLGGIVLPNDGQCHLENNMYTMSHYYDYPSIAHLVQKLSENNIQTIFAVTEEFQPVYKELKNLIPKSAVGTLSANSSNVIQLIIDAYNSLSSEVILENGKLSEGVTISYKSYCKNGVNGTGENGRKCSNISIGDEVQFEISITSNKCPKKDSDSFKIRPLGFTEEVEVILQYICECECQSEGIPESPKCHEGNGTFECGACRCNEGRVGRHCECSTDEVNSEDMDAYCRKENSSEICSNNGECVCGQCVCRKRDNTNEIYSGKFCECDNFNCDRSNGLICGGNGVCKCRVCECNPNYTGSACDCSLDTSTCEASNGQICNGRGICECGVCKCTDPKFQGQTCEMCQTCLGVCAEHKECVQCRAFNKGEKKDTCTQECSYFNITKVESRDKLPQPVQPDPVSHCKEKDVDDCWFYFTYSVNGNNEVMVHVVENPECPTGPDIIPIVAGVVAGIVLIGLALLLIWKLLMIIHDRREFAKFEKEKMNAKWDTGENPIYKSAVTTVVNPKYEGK
Chain of αVβ3 integrin (P06756 31-889 limits assumed): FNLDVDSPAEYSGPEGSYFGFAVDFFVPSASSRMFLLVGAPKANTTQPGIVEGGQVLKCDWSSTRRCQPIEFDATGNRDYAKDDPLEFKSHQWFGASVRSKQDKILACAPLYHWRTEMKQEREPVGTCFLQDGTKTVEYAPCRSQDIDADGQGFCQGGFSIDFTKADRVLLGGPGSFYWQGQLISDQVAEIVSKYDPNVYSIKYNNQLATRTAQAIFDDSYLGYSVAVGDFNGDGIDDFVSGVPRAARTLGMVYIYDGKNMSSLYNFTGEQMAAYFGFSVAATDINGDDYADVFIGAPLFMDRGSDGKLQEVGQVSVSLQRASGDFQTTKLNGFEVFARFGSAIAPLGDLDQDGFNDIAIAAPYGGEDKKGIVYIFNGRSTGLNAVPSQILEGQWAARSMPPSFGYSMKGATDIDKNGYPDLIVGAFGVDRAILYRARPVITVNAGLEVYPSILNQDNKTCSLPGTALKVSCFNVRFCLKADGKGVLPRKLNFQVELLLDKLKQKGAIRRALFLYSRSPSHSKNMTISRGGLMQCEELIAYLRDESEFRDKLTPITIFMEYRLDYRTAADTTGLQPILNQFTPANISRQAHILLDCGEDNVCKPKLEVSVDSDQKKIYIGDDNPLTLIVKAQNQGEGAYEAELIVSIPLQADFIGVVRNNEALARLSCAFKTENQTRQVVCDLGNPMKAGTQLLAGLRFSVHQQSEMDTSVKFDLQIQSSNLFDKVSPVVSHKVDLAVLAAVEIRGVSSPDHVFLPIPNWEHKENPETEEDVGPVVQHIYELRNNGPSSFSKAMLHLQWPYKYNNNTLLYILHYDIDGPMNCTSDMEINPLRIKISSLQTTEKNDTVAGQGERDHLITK
Chain of αVβ3 integrin (P06756 891-1048 partner limits assumed): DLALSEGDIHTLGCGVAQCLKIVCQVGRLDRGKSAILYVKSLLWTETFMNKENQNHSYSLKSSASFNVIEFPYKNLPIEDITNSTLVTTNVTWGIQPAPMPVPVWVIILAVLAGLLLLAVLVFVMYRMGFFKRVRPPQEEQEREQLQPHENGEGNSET
Chain of αVβ3 integrin (P05106 27-788): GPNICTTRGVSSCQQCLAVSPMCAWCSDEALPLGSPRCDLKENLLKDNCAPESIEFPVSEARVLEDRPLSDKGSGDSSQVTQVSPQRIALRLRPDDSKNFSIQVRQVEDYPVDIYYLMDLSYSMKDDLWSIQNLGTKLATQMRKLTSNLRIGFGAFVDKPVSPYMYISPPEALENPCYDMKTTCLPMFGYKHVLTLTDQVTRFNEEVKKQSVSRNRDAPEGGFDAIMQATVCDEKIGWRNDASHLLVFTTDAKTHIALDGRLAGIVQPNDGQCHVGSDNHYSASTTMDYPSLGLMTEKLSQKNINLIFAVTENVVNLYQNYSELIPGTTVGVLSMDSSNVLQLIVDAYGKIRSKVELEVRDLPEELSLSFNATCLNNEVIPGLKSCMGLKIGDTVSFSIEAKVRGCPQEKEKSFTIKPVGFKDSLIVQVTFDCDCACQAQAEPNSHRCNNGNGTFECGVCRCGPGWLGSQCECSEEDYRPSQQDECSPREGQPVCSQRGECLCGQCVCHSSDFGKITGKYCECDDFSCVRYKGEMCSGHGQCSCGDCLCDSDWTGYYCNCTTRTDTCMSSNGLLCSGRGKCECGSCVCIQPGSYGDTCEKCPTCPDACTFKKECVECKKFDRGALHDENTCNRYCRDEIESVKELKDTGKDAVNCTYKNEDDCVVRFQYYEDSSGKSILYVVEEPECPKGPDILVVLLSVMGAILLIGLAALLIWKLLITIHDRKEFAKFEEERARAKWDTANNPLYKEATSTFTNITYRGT

| Substance | identified target: α5β1 integrin (α5β1 integrin) | identified target: αVβ3 integrin (αVβ3 integrin) | growth of SCLC xenografts [1] | vascular leakage (sodium fluorescein fluorescence in the eye) [2] | vascular leakage [3] | retinal detachment ([3]; FIG. 2) | inhibition of signaling from HGFR (c-met) [4] | inhibition of signaling from IGFR [5] | VEGF induced neovascularization and leakage [6] | inhibition of signaling from VEGFR [7] | inhibition of signaling from PDGFR [8] | growth of glioblastoma xenografts (glioblastoma xenografts) | growth of orthotopic TNBC xenografts ([9]; FIG. 4) | tumor vasculature / neovascularization in orthotopic TNBC xenografts ([9]; FIG. 5) | PDI [10] | Z-Average [10] [nm·days] |
| --- | --- | --- | --- | --- | --- | --- | --- | --- | --- | --- | --- | --- | --- | --- | --- | --- |
| LRRFSTAPFAFIDINDVINF [P07] | identified to be the α5β1 and αVβ3 integrins | identified to be the α5β1 and αVβ3 integrins | inhibits the growth | dramatically inhibited | inhibit vascular leakage | almost completely blocked retinal detachment | inhibit signaling | inhibit signaling | strongly inhibits | inhibit signaling | inhibit signaling | inhibits the growth | inhibits the growth; also recorded: dose dependent manner | dramatically diminished vasculature; also recorded: inhibits neovascularization |  |  |
| PLGA-PEG-P07: nanoparticles made completely of PLGA-PEG-P07 conjugated polymer (LRRFSTAPFAFIDINDVINF) |  |  |  |  |  |  |  |  |  |  |  |  |  |  | 0.29 | 77.59 ± 2.65 |
